Assay results published in ChEMBL document CHEMBL1201862, “PubChem BioAssay data set” (2004).
Activity calls are given as the source filed them.

How the values were obtained:
Caspase-3 = target: T1, Caspase-3 (Homo sapiens, UniProt P42574); type: functional;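 also: Dose-response selectivity test against caspase-3 for candidate inhibitors of sentrin-specific proteases (SENPs)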
T1 sequence (P42574 whole entry): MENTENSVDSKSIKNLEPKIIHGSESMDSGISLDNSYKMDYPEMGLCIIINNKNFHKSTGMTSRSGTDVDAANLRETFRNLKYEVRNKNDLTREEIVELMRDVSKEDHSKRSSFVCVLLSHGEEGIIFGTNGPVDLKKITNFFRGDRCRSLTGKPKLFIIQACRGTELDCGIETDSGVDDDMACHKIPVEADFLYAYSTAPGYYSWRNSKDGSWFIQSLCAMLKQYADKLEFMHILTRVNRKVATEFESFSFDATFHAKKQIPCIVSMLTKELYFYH

[1] = target: T2, Sentrin-specific protease 7 (Homo sapiens, UniProt Q9BQF6); type: functional;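 also: Luminescence-based dose-response confirmation of ultra-high-throughput screening hits, measuring inhibition of SENP7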
T2 sequence (Q9BQF6 whole entry): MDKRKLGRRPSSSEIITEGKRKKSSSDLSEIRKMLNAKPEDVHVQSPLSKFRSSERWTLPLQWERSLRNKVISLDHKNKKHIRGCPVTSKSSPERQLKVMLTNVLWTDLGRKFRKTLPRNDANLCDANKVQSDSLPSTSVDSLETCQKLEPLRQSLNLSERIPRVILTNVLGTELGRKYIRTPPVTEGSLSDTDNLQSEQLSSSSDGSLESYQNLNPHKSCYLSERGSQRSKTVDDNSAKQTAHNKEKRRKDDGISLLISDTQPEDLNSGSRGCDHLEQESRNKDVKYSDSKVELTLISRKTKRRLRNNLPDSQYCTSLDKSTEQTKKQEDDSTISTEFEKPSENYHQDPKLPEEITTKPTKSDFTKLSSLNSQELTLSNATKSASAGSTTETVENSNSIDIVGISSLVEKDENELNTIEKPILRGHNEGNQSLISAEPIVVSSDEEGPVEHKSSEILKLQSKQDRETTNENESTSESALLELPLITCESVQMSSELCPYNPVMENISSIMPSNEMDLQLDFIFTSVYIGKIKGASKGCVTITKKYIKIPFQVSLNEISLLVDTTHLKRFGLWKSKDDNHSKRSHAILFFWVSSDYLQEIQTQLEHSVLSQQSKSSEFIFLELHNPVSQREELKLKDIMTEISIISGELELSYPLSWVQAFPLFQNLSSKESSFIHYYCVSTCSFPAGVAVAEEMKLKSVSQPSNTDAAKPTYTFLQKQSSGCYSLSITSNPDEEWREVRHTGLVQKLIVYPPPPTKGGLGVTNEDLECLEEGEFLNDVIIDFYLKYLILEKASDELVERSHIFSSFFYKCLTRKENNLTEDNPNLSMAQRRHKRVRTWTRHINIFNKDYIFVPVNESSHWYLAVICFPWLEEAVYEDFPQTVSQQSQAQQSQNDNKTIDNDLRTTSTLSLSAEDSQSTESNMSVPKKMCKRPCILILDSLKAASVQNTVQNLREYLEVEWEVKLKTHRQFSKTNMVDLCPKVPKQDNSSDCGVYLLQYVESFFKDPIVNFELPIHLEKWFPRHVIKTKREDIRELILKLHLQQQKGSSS

[2] = target: T3, Sentrin-specific protease 6 (Homo sapiens, UniProt Q9GZR1); type: functional;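 also: Luminescence-based dose-response confirmatory assay of SENP6 inhibition, following up an ultra-high-throughput screen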
T3 sequence (Q9GZR1 whole entry): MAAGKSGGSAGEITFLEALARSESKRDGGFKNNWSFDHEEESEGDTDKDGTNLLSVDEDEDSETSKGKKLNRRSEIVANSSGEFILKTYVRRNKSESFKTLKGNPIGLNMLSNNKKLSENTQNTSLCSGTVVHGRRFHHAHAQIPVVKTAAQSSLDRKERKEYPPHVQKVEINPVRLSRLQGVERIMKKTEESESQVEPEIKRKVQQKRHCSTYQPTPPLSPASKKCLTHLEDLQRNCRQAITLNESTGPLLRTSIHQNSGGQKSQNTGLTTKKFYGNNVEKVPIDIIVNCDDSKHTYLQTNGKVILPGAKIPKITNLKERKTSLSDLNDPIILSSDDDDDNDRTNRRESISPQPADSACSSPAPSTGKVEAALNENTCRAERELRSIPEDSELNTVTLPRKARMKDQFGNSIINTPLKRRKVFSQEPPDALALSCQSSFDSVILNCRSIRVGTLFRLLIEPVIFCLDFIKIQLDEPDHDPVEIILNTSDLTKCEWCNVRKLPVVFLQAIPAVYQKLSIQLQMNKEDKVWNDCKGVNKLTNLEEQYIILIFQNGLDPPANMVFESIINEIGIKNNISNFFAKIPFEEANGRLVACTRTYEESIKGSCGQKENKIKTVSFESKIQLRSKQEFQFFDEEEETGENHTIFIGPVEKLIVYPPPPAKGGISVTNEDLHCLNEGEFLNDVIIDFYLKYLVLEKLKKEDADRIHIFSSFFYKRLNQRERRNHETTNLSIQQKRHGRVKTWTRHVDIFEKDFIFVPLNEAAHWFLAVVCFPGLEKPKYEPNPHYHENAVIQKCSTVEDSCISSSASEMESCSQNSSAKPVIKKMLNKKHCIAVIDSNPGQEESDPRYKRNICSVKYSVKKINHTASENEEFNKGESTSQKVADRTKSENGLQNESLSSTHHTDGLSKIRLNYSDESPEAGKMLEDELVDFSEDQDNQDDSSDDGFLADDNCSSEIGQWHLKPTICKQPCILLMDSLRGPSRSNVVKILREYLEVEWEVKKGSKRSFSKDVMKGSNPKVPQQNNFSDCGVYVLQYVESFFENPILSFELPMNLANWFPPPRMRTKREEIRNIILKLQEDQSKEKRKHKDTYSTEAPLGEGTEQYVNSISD

[3] = target: T4, Sentrin-specific protease 8 (Homo sapiens, UniProt Q96LD8); type: functional;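 also: luminescence read-out of SENP8 inhibition, dose-response confirmation following an ultra-high-throughput screen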
T4 sequence (Q96LD8 whole entry): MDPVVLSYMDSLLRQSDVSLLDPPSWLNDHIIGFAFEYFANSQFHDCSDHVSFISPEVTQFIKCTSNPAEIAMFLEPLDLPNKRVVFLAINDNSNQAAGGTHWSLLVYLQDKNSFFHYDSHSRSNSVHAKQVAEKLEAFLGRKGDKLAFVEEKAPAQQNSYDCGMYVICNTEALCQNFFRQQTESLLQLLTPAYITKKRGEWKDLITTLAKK

[4] = NIH-3T3 fibroblast cytotoxicity, dose response, cytotoxicity control, cell-based, fluorescence, Alamar Blue, secondary assay (AID 2327); type: functional;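 also: NIH-3T3 mouse fibroblasts cultured with fluconazole at 8 µg/mL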
[5] = target: T5, Heat shock factor protein 1 (Mus musculus, UniProt P38532); test: inhibition of MG132-induced HSE-luciferase signal, confirmation, cell-based, NIH3T3, luminescence, dose retest (AID 2382); type: functional;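 also: NIH3T3 fibroblasts with HSF1-driven luciferase reporter stressed by proteasome inhibitor MG132; luminescence from HSF1-driven luciferase expression after 8 hours of MG132 stress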
T5 sequence (P38532 whole entry): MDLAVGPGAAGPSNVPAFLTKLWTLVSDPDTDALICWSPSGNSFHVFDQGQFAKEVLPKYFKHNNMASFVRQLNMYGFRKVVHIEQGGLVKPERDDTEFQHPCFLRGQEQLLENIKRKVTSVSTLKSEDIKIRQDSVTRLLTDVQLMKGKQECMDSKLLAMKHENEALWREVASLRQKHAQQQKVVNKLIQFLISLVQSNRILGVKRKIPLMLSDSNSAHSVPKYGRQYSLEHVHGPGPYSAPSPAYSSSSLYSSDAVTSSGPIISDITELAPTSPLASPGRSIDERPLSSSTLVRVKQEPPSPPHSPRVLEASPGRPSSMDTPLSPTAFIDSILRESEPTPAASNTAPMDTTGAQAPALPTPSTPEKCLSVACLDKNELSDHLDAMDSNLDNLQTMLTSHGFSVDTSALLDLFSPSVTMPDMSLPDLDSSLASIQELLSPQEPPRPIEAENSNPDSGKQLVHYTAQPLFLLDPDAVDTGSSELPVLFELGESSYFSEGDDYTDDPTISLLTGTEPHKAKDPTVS

[6] = C. albicans growth with fluconazole, confirmation, fluorescence, retest (AID 2467); type: functional, cell-based
[7] = inhibitors of intracellular T. cruzi replication, confirmation, NIH3T3 host cells, beta-gal luminescence (AID 2044); type: functional, cell-based;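 also: intracellular parasites grown in NIH/3T3 mouse fibroblasts as host cells; luminescent beta-galactosidase reporter signal from transgenic T. cruzi replicating inside host cells; inhibitors lower the luminescence signal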
[8] = target: T6, Serine/threonine-protein phosphatase (Candida dubliniensis (strain CD36 / CBS 7987 / NCPF 3949 / NRRLY-17841) (Yeast), UniProt B9W6M3); test: calcineurin pathway inhibitors in yeast reporter, dose response, S. cerevisiae, CDRE-lacZ, luminescence, secondary (AID 2388); type: functional, cell-based;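 also: yeast reporter cells carrying a calcineurin-responsive lacZ construct stimulated with calcium chloride; luminescent beta-galactosidase reporter signal in whole cells rather than isolated phosphatase activity; potency for inhibition where a drop in reporter signal means calcineurin blockade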
T6 sequence (B9W6M3 whole entry): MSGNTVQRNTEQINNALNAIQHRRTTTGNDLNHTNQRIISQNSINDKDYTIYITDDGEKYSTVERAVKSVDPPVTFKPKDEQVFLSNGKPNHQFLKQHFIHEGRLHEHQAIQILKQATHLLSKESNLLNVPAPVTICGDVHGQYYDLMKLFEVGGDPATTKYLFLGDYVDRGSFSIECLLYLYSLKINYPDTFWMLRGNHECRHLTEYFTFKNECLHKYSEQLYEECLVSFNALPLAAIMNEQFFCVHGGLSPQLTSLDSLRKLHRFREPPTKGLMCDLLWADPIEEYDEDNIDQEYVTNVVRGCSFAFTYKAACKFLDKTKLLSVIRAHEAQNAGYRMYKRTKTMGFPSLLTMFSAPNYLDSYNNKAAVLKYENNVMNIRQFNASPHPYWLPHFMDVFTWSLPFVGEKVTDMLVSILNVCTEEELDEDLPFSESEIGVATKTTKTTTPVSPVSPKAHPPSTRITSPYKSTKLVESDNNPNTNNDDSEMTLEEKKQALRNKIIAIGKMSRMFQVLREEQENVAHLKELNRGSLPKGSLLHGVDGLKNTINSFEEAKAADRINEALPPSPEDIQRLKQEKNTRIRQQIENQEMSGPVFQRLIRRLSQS

[9] = cytotoxicity toward NIH3T3 fibroblasts, dose response, counter-screen, cell-based, ATP luminescence, mouse fibroblasts (AID 2010); type: functional;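 also: cells exposed to compound for about 90 hours before reading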
Nonstructural protein 1 = Nonstructural protein 1 (Influenza A virus, UniProt Q194T2); type: functional, Influenza A virus (A/California/07/2009(H1N1))
Nonstructural protein 1, sequence (Q194T2 whole entry): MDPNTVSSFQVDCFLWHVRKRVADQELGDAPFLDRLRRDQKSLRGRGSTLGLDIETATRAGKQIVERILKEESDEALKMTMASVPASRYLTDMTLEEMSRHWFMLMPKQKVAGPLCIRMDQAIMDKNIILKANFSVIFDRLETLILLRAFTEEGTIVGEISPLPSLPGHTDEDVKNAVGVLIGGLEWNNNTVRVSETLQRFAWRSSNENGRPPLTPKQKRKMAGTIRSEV

[10] = target: T7, Microphthalmia-associated transcription factor (Homo sapiens, UniProt O75030); test: TRPM1 promoter luciferase signal decrease, dose response, MITF inhibitor project, cell-based, SK-MEL-5, cherry-picked, set 3 (AID 493073); type: functional
T7 sequence (O75030 whole entry): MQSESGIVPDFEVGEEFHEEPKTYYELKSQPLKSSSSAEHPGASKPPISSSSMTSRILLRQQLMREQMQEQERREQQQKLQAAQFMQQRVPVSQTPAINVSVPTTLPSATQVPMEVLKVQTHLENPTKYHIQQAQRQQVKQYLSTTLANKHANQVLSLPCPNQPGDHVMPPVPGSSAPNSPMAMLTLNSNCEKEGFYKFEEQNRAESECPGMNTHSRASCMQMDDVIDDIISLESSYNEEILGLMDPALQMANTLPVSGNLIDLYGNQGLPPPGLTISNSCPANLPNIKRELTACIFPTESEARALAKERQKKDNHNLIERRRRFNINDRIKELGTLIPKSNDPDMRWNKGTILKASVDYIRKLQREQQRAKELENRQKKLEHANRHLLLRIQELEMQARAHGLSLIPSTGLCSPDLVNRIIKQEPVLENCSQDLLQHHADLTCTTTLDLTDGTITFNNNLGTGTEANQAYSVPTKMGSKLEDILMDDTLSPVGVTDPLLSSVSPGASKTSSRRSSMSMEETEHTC

A-375 = test: MITF: Counter assay: A375 proliferation Measured in Cell-Based System Using Plate Reader - 2084-03_Inhibitor_Dose_DryPowder_Activity. [Related pubchem assays (depositor defined):AID488944]; type: functional; conditions: Homo sapiens
INS1 = test: beta cell apoptosis inhibitors, cytokine rescue, dose response, luminescence, retest (AID 449756); type: functional, cell-based; conditions: Rattus norvegicus;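 also: cell death triggered by IL-1 beta plus TNF-alpha plus IFN-gamma mixture; protective hits raise ATP signal compared with cytokine alone wells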
[11] = target: ATP-dependent molecular chaperone HSP82 (Candida albicans (strain WO-1) (Yeast), UniProt C4YTQ8); test: loss of DOC-induced GRE-beta-galactosidase reporter signal, dose response, Hsp90 inhibitor project, S. cerevisiae, luminescence (AID 2400); type: functional, cell-based;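 also: beta-galactosidase luminescence from glucocorticoid response element reporter as proxy for Hsp90 function; inhibitor potency where signal loss means Hsp90 inhibition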
ATP-dependent molecular chaperone HSP82, sequence (C4YTQ8 whole entry): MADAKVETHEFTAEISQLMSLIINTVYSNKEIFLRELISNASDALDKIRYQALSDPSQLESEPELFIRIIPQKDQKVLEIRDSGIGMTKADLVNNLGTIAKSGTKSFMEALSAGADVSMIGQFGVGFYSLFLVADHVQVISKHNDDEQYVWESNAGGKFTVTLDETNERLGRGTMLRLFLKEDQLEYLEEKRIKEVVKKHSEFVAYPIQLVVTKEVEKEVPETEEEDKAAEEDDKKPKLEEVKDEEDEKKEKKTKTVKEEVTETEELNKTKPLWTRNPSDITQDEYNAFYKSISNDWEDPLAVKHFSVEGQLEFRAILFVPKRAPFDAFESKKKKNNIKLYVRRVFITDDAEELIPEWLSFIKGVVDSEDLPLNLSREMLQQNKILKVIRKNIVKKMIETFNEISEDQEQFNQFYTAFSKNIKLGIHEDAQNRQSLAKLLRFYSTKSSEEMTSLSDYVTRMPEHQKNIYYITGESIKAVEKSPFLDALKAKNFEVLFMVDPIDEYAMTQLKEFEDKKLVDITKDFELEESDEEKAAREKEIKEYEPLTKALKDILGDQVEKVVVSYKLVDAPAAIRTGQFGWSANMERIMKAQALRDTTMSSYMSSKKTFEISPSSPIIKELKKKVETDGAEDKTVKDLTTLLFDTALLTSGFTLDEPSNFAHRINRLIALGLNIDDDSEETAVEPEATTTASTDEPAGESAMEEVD

[12] = Shn3 3'UTR reporter inhibitors, dose response, cell-based, Clone20 osteoblasts, firefly luciferase, cherry-picked (AID 624132); type: functional;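 also: firefly luciferase luminescence from reporter carrying the Shn3 3'UTR in osteoblasts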
[13] = HepG2 cell cytotoxicity, dose response, cytotoxicity control for Shn3 inhibitor project, CellTiter-Glo, cherry-picked (AID 624134); type: functional, cell-based
[14] = control 3'UTR Renilla luciferase suppression, dose response, counter-screen for Shn3 inhibitor project, cell-based, Clone20-Shn3RL, cherry-picked (AID 624133); type: functional
[15] = target: Photoreceptor-specific nuclear receptor (Homo sapiens, UniProt Q9Y5X4); type: functional, cell-based;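 also: CHO-S cells with Gal4-NCOR and VP16-NR2E3 two-hybrid luciferase reporter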
Photoreceptor-specific nuclear receptor, sequence (Q9Y5X4 whole entry, the tested form may be a part): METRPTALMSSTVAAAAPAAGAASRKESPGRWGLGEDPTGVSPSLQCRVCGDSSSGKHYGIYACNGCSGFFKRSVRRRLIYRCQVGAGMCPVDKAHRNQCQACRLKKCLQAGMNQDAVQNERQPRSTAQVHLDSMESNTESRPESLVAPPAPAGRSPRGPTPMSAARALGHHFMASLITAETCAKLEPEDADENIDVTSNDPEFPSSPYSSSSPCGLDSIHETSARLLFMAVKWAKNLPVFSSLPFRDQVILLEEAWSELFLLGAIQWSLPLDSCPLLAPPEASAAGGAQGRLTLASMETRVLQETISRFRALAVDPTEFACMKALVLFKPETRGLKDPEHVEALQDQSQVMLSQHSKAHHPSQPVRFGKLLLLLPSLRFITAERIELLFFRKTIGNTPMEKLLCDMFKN

[16] = Luminescence Cell-Based Dose Confirmation HTS to Identify Activators of 5'UTR Stem-Loop Driven Alpha-Synuclein mRNA Translation in H4 Neuroglioblastoma Cells. [Related pubchem assays: 1829 (Project Summary), 1814 (Primary HTS)]; type: functional
[17] = Luminescence Cell-Based Dose Response HTS to Identify Activators of Luciferase Translation or Activity in H4 […] Cells. [Related pubchem assays: 1829 (Project Summary), 1814 (Primary HTS)]; type: functional
H4 = test: Luminescence Cell-Based Dose Response HTS to Identify Activators of 5'UTR Stem-Loop Driven Prion Protein mRNA Translation in H4 Neuroglioblastoma Cells. [Related pubchem assays: 1829 (Project Summary), 1814 (Primary HTS)]; type: functional; conditions: Homo sapiens

CSc1ncccc1C(=O)OCc1ccccc1
active: IC50 (Caspase-3) 21.3 µM | IC50 [1] 9.53 µM | IC50 [2] 31.8 µM | IC50 [3] 43.6 µM

O=[N+]([O-])c1cc(CN2CCN(c3ccccc3)CC2)c(O)c2ncccc12
active: EC50 [6] 0.201 µM | EC50 [7] 0.295 µM | EC50 [9] 0.809 µM | IC50 (Nonstructural protein 1) 3.42 µM | AC50 [10] 8.3 µM | AC50 (A-375) 49.4 µM | AC50 (INS1) 1.17 µM | EC50 [11] 18 µM | AC50 [12] 1.99 µM | AC50 [13] 3.74 µM | AC50 [14] 2.28 µM
> 195 µM (not active): EC50 [5]
inconclusive: EC50 [4] 23 µM
inactive: EC50 [8] > 180 µM | IC50 [15] 13.9 µM

O=c1cc(-c2cccs2)oc2ccc(Cl)cc12
inactive: IC50 [2] > 100 µM | IC50 [3] > 100 µM
active: EC50 [16] 3.83 µM | EC50 [17] 5.5 µM | IC50 (Caspase-3) 18 µM | IC50 [1] 7.72 µM
> 120 µM (not active): EC50 (H4)
